The test system of one series is MDA-MB-231 xenograft. Particulars: SCID mice, 17 and 50 mg kg^−1, compared to control; cited from earlier work.
The target of another series is T1, PARP (Homo sapiens, UniProt P09874).
T1 construct: on PARP activity has been determined in caspase-3 null MCF-7 cells; host or cells: MCF-7
Conditions: caspase-3 null MCF-7 cells; cited from earlier work.

In series [1] the test system is angiogenesis in mouse tumor specimens. Particulars: high concentration; cited from earlier work.
For series [2], the system named is vascular endothelial growth factor (VEGF). Conditions: high concentration; cited from earlier work.
Series [3] addresses hypoxia-inducible factor (HIF) 1α (Homo sapiens, UniProt Q16665). Conditions: high concentration, human breast cancer cells; cited from earlier work.
The nature of series [4]: Decomposition kinetics by UV spectrophotometry in PBS. Format: physicochemical. Conditions: for pH dependence of hydrolysis rate: 37° C. The protocol:
FIGS. 3A and 3B are graphs illustrating the pH-dependence of the rate constant of decomposition of (FIG. 3A) 1 (100 or 200 μM) and (FIG. 3B) 2 (100 μM) at 37° C. in PBS containing 50 μM DTPA measured at 250 nm (mean±SEM, n≥3).
(§1) The rate constants of decomposition were measured spectrophotometrically by monitoring the decrease in absorbance of peaks at ^˜240-250 nm characteristic of the diazeniumdiolate functionality. The hydrolysis medium consisted of the metal chelator diethylenetriaminepentaacetic acid (DTPA, 50 μM) in calcium- and magnesium-free Dulbecco's phosphate-buffered saline (PBS, pH 7.4). UV-visible spectroscopy was performed with a Hewlett-Packard 8453 diode-array spectrophotometer equipped with Agilent 89090A thermostat set to 37° C. The spectrophotometer was blanked after warming the cuvette containing buffer at the appropriate pH in the instrument heat block for 5 min. For esterase-containing reactions, porcine liver esterase (20 μL; Sigma; suspension in 3.2 M (NH4)2SO4, pH 8) was added to the reaction buffer before blanking. Upon addition of IPA/NO (1) or AcOM-IPA/NO (2) (≤10 μL of stock), the cuvette was capped and inverted to mix. Spectra were collected at 0.5- to 60-s intervals for time periods of 2-120 min or until A∞<0.05. Kinetic analysis was performed by fitting the data to an exponential decay (A=ΔAe^−kt+A∞) using KaleidaGraph v.3.1.

A further series has as its system porcine liver esterase. As to the kind of experiment: Esterase-catalyzed hydrolysis. In kind it is in vitro ADME. Here is the method:
FIGS. 4A-C are graphs illustrating spontaneous hydrolysis (FIGS. 4A and 4B) and esterase-catalyzed hydrolysis (FIG. 4C) of 2 in an embodiment of the invention. In FIG. 4A, spectra were collected every 60 s (10-min intervals shown) after dissolving 2 in PBS (pH 7.4) at 37° C., and only loss of the parent compound was observed. In FIG. 4B, the pH was elevated to 12, and scans were collected every 0.5 s (through 2.5 s and 3.5, 5.5, 9.5, and 54.5 shown). In FIG. 4C, porcine liver esterase (20 μL in 3 mL) was added (pH 7.4), and spectra were collected every 10 s. Hydrolysis of 2 (λmax 236 nm) to 1 (λmax 250 nm) was complete within 40 s (0.067 s^−1) under these conditions. […] Elevation of the intensity near 200 nm indicated formation of autoxidation products such as nitrite. Deaeration inhibited this peak (data not shown).
as §1

Series [5] is described as follows: Alkaline hydrolysis at pH 11 followed by NMR. Format: physicochemical. Here is the method:
Organic products of the hydrolysis of 1 and 2 were quantified by integrating their NMR spectra. For pH 7.4, 3.9 mM solutions in 0.1 M phosphate buffer were employed. For pH 11, 4.9 mM solutions of 1 and 2 in 50 mM sodium carbonate were studied. Samples were run on a Varian Inova 400 MHz NMR with a Dell Precision 390 workstation. The samples were run at 37° C. and water suppression was achieved by using the preset pulse sequence. Peaks were identified by comparison with authentic standards.
Differences in time course as well as stoichiometry in the alkaline hydrolysis of 1 and 2 also matched the expectation based on the HNO/NO yield and rate data. […] Compound 2, on the other hand, completely dissociated within 5 min at 37° C. in a pH 11 carbonate buffer. […] However, the amine was undetectable.

Another series relates to MDA-MB-231 cells. The series is described as follows: Oxidation of DCF (oxidant level) in cells. Particulars: 100 μM, 37° C., MDA-MB-231 as representative example. In kind it is cell-based, human.
The next series concerns MDA-MB-231 xenografts. The series is described as follows: MDA-MB-231-GFP xenograft growth and brain metastasis in nude mice. Format: in vivo. Conditions: daily injection of equimolar doses for five weeks, vs control.
For the next series, the system named is BCL-2. As to the kind of experiment: BCL-2 expression. Format: cell-based. Particulars: FIG. 18.
For the next series, the system named is ER-α. The series is described as follows: ER-α levels (mRNA of ER1) in ER-α(−) cells. Format: cell-based. Conditions: FIG. 20.
Series [6] has as its system various cancer cells lines. Conditions: read-out: IC50 (cytotoxicity); cited from earlier work.
The next series deals with MB-231 cells. The series is described as follows: cells. Conditions: Homo sapiens, 48 h.
Where [7] appears, read: porcine liver esterase 20 μL in 3 mL, pH 7.4.

Each structure is given as a SMILES string. Some results are limits rather than exact numbers.

T1 sequence (P09874 whole entry): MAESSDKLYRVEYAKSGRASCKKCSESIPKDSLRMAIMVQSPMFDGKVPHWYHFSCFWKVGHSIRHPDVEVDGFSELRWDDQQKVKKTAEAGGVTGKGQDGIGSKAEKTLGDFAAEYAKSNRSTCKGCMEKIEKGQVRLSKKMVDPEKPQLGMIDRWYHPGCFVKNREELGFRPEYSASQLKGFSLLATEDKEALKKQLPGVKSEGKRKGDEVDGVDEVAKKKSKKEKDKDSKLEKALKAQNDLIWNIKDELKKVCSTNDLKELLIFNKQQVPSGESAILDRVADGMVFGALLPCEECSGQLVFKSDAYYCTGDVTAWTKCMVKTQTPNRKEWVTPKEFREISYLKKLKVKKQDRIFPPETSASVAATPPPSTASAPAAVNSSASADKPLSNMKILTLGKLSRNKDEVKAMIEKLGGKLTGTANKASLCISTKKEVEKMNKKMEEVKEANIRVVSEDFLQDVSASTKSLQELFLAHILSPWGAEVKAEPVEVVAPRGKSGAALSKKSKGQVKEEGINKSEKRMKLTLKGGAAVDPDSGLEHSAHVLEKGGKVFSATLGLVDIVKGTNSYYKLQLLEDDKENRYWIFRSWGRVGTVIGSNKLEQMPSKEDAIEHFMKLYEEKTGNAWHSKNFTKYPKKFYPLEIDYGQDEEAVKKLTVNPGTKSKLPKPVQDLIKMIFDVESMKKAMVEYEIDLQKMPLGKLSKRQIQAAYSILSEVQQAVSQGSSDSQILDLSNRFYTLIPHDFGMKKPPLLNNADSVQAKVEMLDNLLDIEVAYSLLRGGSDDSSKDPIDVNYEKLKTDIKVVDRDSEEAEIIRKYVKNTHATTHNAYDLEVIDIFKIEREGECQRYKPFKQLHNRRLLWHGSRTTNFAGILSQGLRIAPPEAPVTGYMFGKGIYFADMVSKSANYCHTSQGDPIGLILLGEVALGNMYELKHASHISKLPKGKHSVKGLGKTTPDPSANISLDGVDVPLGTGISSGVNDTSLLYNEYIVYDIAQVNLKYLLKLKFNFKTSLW
Chain of hypoxia-inducible factor (HIF) 1α (Q16665 whole entry): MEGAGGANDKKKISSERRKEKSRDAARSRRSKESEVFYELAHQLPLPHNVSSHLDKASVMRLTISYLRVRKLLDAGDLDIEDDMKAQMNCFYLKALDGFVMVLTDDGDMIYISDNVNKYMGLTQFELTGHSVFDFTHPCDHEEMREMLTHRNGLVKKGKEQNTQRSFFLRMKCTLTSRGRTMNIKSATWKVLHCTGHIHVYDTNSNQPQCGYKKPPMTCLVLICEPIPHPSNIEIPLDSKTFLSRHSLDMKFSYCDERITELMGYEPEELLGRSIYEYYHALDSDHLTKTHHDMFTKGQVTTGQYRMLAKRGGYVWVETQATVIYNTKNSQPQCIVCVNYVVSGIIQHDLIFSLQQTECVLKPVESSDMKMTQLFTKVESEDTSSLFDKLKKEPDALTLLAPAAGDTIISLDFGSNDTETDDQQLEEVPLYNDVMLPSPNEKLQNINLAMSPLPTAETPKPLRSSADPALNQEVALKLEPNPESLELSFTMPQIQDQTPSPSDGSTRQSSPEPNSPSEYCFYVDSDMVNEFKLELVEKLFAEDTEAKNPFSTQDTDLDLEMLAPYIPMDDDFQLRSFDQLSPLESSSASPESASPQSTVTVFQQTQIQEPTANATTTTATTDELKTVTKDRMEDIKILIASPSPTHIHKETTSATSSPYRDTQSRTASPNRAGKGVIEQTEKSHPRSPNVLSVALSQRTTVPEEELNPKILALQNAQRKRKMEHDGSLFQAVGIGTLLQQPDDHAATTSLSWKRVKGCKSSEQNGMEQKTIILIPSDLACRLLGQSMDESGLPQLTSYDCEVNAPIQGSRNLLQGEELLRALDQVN
Experimental for MDA-MB-231 cells: DCF loaded cells were treated with IPA/NO-aspirin (blue), DEA/NO-aspirin (green), IPA/NO (magenta), DEA/NO (brown), aspirin (red) or DMSO (0.1%; black) at 37° C., and the fluorescence at 535 nm was measured in a time-dependent manner. Data are plotted as mean±SD (n=4).
Experimental for MDA-MB-231 xenografts: The cells were allowed to grow for 14 d, and the animals (40) were randomly divided into four groups (control, aspirin, IPA/NO-aspirin or DEA/NO-aspirin). Treated groups were injected daily with equimolar doses of DEA/NO-aspirin or IPA/NO-aspirin (16 mg kg^−1) or aspirin (9 mg kg^−1)) or with DMSO for the next five weeks.
For examples utilizing mouse tumor model methods, the following procedure was instituted. Analysis of tumor growth was carried out using protocols approved by the Committee on the Ethics of Animal Experiments of the National Cancer Institute (RBB-144) and adhered with the recommendations in the United States National Research Council's “Guide for the Care and Use of Laboratory Animals,” the United States Public Health Service's “Guide for the Care and Use of Laboratory Animals” and the “Policy on Humane Care and Use of Laboratory Animals”. The vivarium was maintained at 23° C. on a 12 h light/12 h dark cycle with ad libitum access to food and water. Nude mice (n=40) under general anesthesia were implanted with 7.5×10^5 MDA-MB-231 cells transfected with GFP by injection underneath the fourth left mammary gland. Prior to implantation, pedal withdrawal and eyelid reflexes were examined to ensure that mice were under stage III of anesthesia. At 14 days post-inoculation, the mice were randomly divided into four groups and treated by daily injection of equimolar doses (10 μL of 100 mM stock) of aspirin (9.00 mg kg^−1), IPA/NO-aspirin (15.8 mg kg^−1) or DEA/NO-aspirin (16.3 mg kg^−1) or with vehicle (DMSO). After five weeks, the tumor size was measured using in vivo fluorescent imaging for quantification of the GFP tag. In brief, mice were under general anesthesia throughout the whole body imaging process, and GFP signals were captured and quantified in an Xenogen IVIS 100 Imaging System according to the manufacturer's protocol. To assess metastasis in the brain, the animals were subsequently sacrificed following the approved method and guidelines.

With `[Na+].[Na+].[O-][N+]([O-])=NO` [Angeli's salt, Na2N2O3], in the series with MDA-MB-231 xenograft, the tumor growth result is on record as “some inhibition of tumor growth”. In addition, the “inhibitory effect on PARP activity” value on PARP is “rapid, but required rather high concentrations of donor”. Moreover, the angiogenesis result in series [1] was “inhibited angiogenesis”. Also, the “serum VEGF levels” value in series [2] is listed as “decreased”. Moreover, the “HIF 1α” value in [3] is “inhibited”.
`CC(C)N[N+]([O-])=N[O-].[Na+]` [Compound 1, O^2-Sodium 1-(N-Isopropylamino)diazen-1-ium-1,2-diolate, reference compound]: the “pH dependence of hydrolysis rate” value in [4] (PBS with 50 μM DTPA) was “slowed as the pH was increased from 3 to 10, with a small increase in rate thereafter”. The “rate of decay of 1” value in series [4] (PBS with 50 μM DTPA, 37° C. (FIG. 3A)) stood at 0.0012 s⁻¹. In addition, in the series on porcine liver esterase (1 formed from 2 with esterase, pH 7.4 (FIG. 4C)), the “rate of decay of 1” value amounted to 0.0033 s⁻¹. In addition, in series [5] (pH 11), the “hydrolysis at pH 11” value is “hydrolyzed slowly” and the “hydrolysis rate relative to 2 (more slowly)” value is recorded as 100 fold. In addition, the “oxidation of DCF (fluorescence intensity)” value (“oxidation of DCF” for short) in the series on MDA-MB-231 cells is given as “oxidized DCF, but to a much reduced extent”.
Turning to `CC(=O)OCO/N=[N+](\[O-])NC(C)C` [Compound 2, O^2-(acetoxymethyl)1-(isopropylamino)diazen-1-ium-1,2-diolate], the “pH dependence of hydrolysis rate” value in [4] (PBS with 50 μM DTPA) is “essentially first order in hydroxide ion concentration between pH 5 and 11”. Moreover, the “hydrolysis rate relative to 1” value in [4] (physiological pH) is reported as “an order of magnitude slower”. Also, in the series with porcine liver esterase (setting [7]), the “rate of hydrolysis of 2 to 1” value stood at 0.067 s⁻¹ and the “time to complete hydrolysis of 2 to 1” value was not above 40 s. Moreover, the “time to complete dissociation” value in series [5] (37° C., pH 11 carbonate buffer) is on record as not above 5 min.
`CCN(CC)[N+]([O-])=N[O-].[Na+]` [DEA/NO, O^2-Sodium 1-(N,N-Diethylamino)diazen-1-ium-1,2-diolate]: in the series with MDA-MB-231 cells, the “oxidation of DCF” value is “oxidized DCF, but to a much reduced extent”. On PARP, the “inhibitory effect on PARP activity” value is given as “rapid, but required rather high concentrations of donor”.
`CC(=O)Oc1ccccc1C(=O)O` [aspirin, reference compound]: the “size of the primary tumor (GFP fluorescence intensity, tumor mass)” value in the series with MDA-MB-231 xenografts was “did not significantly decrease”. For the same compound, the “oxidation of DCF” value in the series with MDA-MB-231 cells is “ineffective compared to control”. In addition, the BCL-2 expression entry in the series on BCL-2 is “induce BCL-2 expression”. The ER-α levels entry with ER-α is “increases ERα levels”. The IC50 in series [6] was more than 1000 µM.
On to `CC/C(=C(\c1ccccc1)c1ccc(OCCN(C)C)cc1)c1ccccc1` [tamoxifen], for which the viability at 10 µM in the series with MB-231 cells turned out to be 76%.

The values above are taken from US10213445B2, “Compositions and methods of diazeniumdiolate-based prodrugs for treating cancer” (ARIZONA BOARD OF REGENTS ON BEHALF OF THE UNIVERSITY OF …, priority 2014, dated 2019).
